From PMC10726440, “N-Biphenyl Pyrrolinones and Dibenzofurans as RNA-Binding Protein LIN28 Inhibitors Disrupting the LIN28–Let-7 Interaction” (ACS Medicinal Chemistry Letters, 2023)
“And” between values parts separate entries of the source, which are not always exact repeats. Equal entries are not always repeated.

Tests used:
[1] = target: T1, LIN28A (16-126) CSD protein (Homo sapiens, UniProt Q9H9Z2); test: Nano differential scanning fluorimetry (nanoDSF) thermal shift; type: binding; details: compound at 75 μM
T1 construct: incubated with LIN28A (16-126) CSD protein; pET19a or pMAL vector) (cleaved yes); made in house; host or cells: Escherichia coli BL21(DE3)
T1 sequence (Q9H9Z2 16-126): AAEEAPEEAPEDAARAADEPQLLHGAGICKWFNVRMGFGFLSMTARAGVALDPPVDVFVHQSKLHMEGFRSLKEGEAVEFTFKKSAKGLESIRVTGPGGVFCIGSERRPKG
Method: (§1) Nano differential scanning fluorimetry (nanoDSF)
Compounds (final concentration 75 µM) were incubated with LIN28A (16-126) CSD protein
for 45 minutes at room temperature in a buffer containing 30 mM NaH2PO4, 50 mM NaCl and
1 mM MgCl2 at pH 8.0. Thermal protein stability was determined using NanoTemper
Prometheus NT.48 with a temperature ramp from 20 °C to 90 °C increasing the temperature by
1 °C per minute. Melting temperatures were determined using the software of the device. […]
(§2) Master Mix II, with UNG (A pplied Biosystems) and a CFX Connect Real -Time PCR System

[2] = target: T2, LIN28A(16–187)–let-7 interaction (Homo sapiens, UniProt Q9H9Z2); test: Electrophoretic mobility shift assay (EMSA), disruption of LIN28–let-7 complex; type: binding; details: for IC50: concentration-dependent EMSA, some values estimated, read-out: IC50 in dose–response EMSA; for inhibition at 75 µM: single concentration of 75 μM, read-out: inhibition of the LIN28–let-7 interaction measured in EMSA
T2 construct: LIN28A(16–187) or LIN28B(24–111); pET19a or pMAL vector) (cleaved yes); made in house; host or cells: Escherichia coli BL21(DE3)
T2 sequence (Q9H9Z2 16-187): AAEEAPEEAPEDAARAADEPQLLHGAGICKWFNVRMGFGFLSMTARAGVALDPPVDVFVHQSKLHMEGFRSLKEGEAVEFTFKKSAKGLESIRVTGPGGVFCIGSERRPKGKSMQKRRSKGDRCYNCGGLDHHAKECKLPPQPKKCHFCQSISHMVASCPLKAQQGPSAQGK
Method: (§3) Inhibition of the LIN28–let-7 complex was evaluated by electrophoretic mobility shift assays. Mixtures containing compound at indicated concentrations, LIN28A(16–187) or LIN28B(24–111), and recombinant ribonuclease inhibitor (TaKaRa Bio) were incubated at room temperature for 2 h. The reaction buffer contained 50 mM TRIS, pH 7.5, 100 mM NaCl, 10 mM β-mercaptoethanol, 50 μM ZnCl2, 2% DMSO, 0.01% Tween-20 and 12% glycerol. Cy-3-fluorophore labeled RNA, (pre-E let-7f-1-Cy3, Mus musculus, […]-Cy3, purchased from IDT) was added to the reaction and incubated for further 15 min. The final concentrations were as follows: 10 nM LIN28A or 200 nM LIN28B, 5 nM RNA. Of each mixture, 10 μL was analyzed on a nondenaturing PAGE (5.3% acrylamide TAE PAGE for full-length LIN28 and 10% acrylamide TAE PAGE for analysis of the CSD) prerun for 1 h without sample and run for 1 h at 220 V at 4 °C in 0.25× TAE buffer. Gels were imaged using a ChemiDoc MP instrument (Bio-Rad Laboratories). Band intensities were analyzed using ImageJ and inhibition was quantified by calculation of the ratio of free RNA fluorescence to the fluorescence of the protein–RNA complex, and normalization to free RNA and LIN28–let-7 complex controls. The intensity ratio was analyzed by nonlinear regression fit in GraphPad Prism to determine the IC50 values.

[3] = system: mature let-7d and let-7i levels in JAR cells; test: qPCR of mature let-7 miRNA levels in JAR cells; type: cell-based; details: 24 h
Method: as §1
Compounds (final concentration 75 µM) were incubated with LIN28A (16-126) CSD protein for 45 minutes at room temperature in a buffer containing 30 mM NaH2PO4, 50 mM NaCl and 1 mM MgCl2 at pH 8.0. Thermal protein stability was determined using NanoTemper Prometheus NT.48 with a temperature ramp from 20 °C to 90 °C increasing the temperature by 1 °C per minute. Melting temperatures were determined using the software of the device.
(§4) Biolayer Interferometry (BLI)
Recombinant LIN28A CSD was biotinylated with EZ-Link Sulfo NHS-LC-LC-Biotin (Thermo Fisher Scientific) following the manufacturer's guidelines with a labeling ratio of one biotin per protein. Free biotin reagent was removed during dialysis against buffer (20 mM HEPES pH 7.5, 150 mM NaCl, 1 mM MgCl2). […] The association and dissociation of compounds were recorded in a buffer containing 20 mM HEPES pH 7.5, 150 mM NaCl, 1 mM MgCl2, 0.05 % Tween 20, 1 % DMSO and 0.3 mg/mL BSA. Data was measured and analyzed using an Octet Red384 instrument (Sartorius). […]
For computational docking analysis of pyrrolinones 11S/R to the RNA binding site of LIN28A (PDB code: 5UDZ)1 Schrödinger® Maestro 12.3 was used. […] The glide dock module was used and the results were evaluated according to interactions between small molecules and LIN28A, small molecule orientations, docking scores and solvent exposure patterns. […]

LIN28A CSD = target: T3, LIN28A CSD (Homo sapiens, UniProt Q9H9Z2); test: Biolayer interferometry (BLI); type: binding
T3 construct: residues 16–126 of the LIN28A cold shock domain; pET19a or pMAL vector) (cleaved yes); made in house; host or cells: Escherichia coli BL21(DE3)
T3 sequence (Q9H9Z2 16-126): T1 sequence (Q9H9Z2 16-126)
Method: as §4
Recombinant LIN28A CSD was biotinylated with EZ-Link Sulfo NHS-LC-LC-Biotin (Thermo Fisher Scientific) following the manufacturer's guidelines with a labeling ratio of one biotin per protein. Free biotin reagent was removed during dialysis against buffer (20 mM HEPES pH 7.5, 150 mM NaCl, 1 mM MgCl2). After loading optimization, the protein was immobilized on SA biosensors (Sartorius). The association and dissociation of compounds were recorded in a buffer containing 20 mM HEPES pH 7.5, 150 mM NaCl, 1 mM MgCl2, 0.05 % Tween 20, 1 % DMSO and 0.3 mg/mL BSA. Data was measured and analyzed using an Octet Red384 instrument (Sartorius). Double referencing against samples without compound and sensors loaded with 10 µg/mL biocytin instead of protein was performed. […]
as §2

LIN28B–let-7 interaction = target: T4, LIN28B–let-7 interaction (Homo sapiens, UniProt Q6ZN17); test: EMSA with LIN28B; type: binding; details: Figure S3
T4 construct: residues 24–111 of the LIN28B cold shock domain; pET19a or pMAL vector) (cleaved yes); made in house; host or cells: Escherichia coli BL21(DE3)
T4 sequence (Q6ZN17 24-111): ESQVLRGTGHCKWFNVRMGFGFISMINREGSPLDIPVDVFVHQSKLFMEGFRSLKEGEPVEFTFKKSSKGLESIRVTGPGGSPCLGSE
Method: as §3

Row | increase in thermal stability (melting temperature shift) of the LIN28 CSD [1] | IC50 [2] | inhibition at 75 µM [2] | direct binding to the LIN28 CSD in biolayer interferometry (in words) (LIN28A CSD) | inhibition of the LIN28B–let-7 interaction in EMSA (in words) (LIN28B–let-7 interaction) | SMILES | effect on biogenesis of mature let-7i and let-7d miRNAs (in words) [3]
1 | ~1.9 °C | 37 µM | – | – | – | O=C(C1=C(O)C(=O)N(c2cccc(-c3ccccc3)c2)[C@H]1c1ccc([N+](=O)[O-])cc1)c1ccccc1 [Compound 11S] | –
2 | less than 0.5 °C | > 75 µM and ~90 µM | 69.9% | – | – | Cn1nnc2cc(C3C(C(=O)c4ccccc4)=C(O)C(=O)N3c3ccc(O)c(C(=O)O)c3)ccc21 (stereo not drawn) [Compound 8] | –
3 | – | 27 µM | 95% | concentration-dependent binding | concentration-dependent manner | O=C(C1=C(O)C(=O)N(c2cccc(-c3ccccc3)c2)C1c1ccc([N+](=O)[O-])cc1)c1ccccc1 (stereo not drawn) [Compound 11] | concentration-dependent manner
4 | ~1.9 °C | 24 µM | – | – | – | O=C(C1=C(O)C(=O)N(c2cccc(-c3ccccc3)c2)[C@@H]1c1ccc([N+](=O)[O-])cc1)c1ccccc1 [Compound 11R] | –
